Patent publication US20240158446A1, “CYCLIC COMPOUND HAVING SELECTIVE INHIBITORY ACTION ON KRAS OVER HRAS AND NRAS” (CHUGAI SEIYAKU KABUSHIKI KAISHA, priority 2021, published 2024)
Read-outs that look alike come from different tables or passages of the source. Where a SMILES comes first, the peptide text is derived from it. Bridges are numbered along the chain shown (N, C = ends). [ ]: non-standard residue; d: D form. The star is where a group is joined. hPhe(3-Cl-4-CF3) = N[C@@H](CCc1ccc(C(F)(F)F)c(Cl)c1)C(=O)O; NPrPhe(4-CF3) = CCCN[C@@H](Cc1ccc(C(F)(F)F)cc1)C(=O)O; NMeGly(cPent) = CN[C@H](C(=O)O)C1CCCC1; NMeD = CN[C@@H](CC(=O)O)C(=O)O; NMeL = CN[C@@H](CC(C)C)C(=O)O; NMeNva = CCC[C@H](NC)C(=O)O; Morpholide = C1CN(*)CCO1; Ac4c = NC1(C(=O)O)CCC1; NPrGly = CCCNCC(=O)O; NEtG = CCNCC(=O)O; Sar = CNCC(=O)O

Columns and labels:
[1] = target: GDP-bound KRAS wild-type protein (Homo sapiens, UniProt P01116); experiment: Binding to KRAS by surface plasmon resonance (SPR), Single Cycle Kinetics; details: SPR, Single Cycle Kinetics, GDP-bound KRAS wild-type protein; read-out: KRAS KD
[2] = target: GDP-bound NRAS wild-type protein (Homo sapiens, UniProt P01111); experiment: Binding to NRAS by surface plasmon resonance (SPR), Single Cycle Kinetics; details: SPR; for NRAS/KRAS (KD ratio): ratio of KD for GDP-bound NRAS wild-type protein to KD for KRAS; for NRAS/KRAS (ratio of KD value for NRAS to KD value for KRAS): GDP-bound NRAS wild-type protein vs GDP-bound KRAS wild-type protein
[3] = target: GDP-bound HRAS wild-type protein (Homo sapiens, UniProt P01112); experiment: Binding to HRAS by surface plasmon resonance (SPR), Single Cycle Kinetics; details: SPR; for HRAS/KRAS (KD ratio): ratio of KD for GDP-bound HRAS wild-type protein to KD for KRAS; for HRAS/KRAS (ratio of KD value for HRAS to KD value for KRAS): GDP-bound HRAS wild-type protein vs GDP-bound KRAS wild-type protein
[4] = test system: human lung cancer strain NCI-H441;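 also: cell proliferation inhibition after four days measured by CellTiter-Glo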
[5] = read-out: NCI-H441 IC50, NCI-H441 cell proliferation, 4 days, CellTiter-Glo

Sequence of GDP-bound KRAS wild-type protein (P01116 whole entry): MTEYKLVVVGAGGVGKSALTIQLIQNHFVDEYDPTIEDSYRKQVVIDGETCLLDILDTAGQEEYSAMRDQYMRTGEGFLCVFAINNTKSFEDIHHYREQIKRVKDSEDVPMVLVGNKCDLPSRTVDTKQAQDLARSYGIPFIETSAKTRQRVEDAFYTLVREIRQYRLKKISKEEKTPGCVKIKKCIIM
Sequence of GDP-bound NRAS wild-type protein (P01111 whole entry): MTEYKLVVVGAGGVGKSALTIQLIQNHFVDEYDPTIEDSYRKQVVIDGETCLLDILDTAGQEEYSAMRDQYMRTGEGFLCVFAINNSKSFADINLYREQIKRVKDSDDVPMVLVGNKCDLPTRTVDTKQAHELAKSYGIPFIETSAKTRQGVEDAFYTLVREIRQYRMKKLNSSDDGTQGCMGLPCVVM
Sequence of GDP-bound HRAS wild-type protein (P01112 whole entry): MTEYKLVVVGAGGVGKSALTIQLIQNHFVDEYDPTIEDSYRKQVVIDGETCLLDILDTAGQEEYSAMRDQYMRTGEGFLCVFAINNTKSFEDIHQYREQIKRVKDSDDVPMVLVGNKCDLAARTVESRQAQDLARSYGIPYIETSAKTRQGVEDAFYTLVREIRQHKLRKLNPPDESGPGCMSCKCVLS

Kd [1] [nM]	IC50 [4] [nM]	IC50 [4, 5] [nM]	Structure (SMILES)	NRAS/KRAS (KD ratio) [2]	HRAS/KRAS (KD ratio) [3]	NRAS/KRAS (ratio of KD value for NRAS to KD value for KRAS) [2]	HRAS/KRAS (ratio of KD value for HRAS to KD value for KRAS) [3]
0.029	2.4		CCO[C@@H]1C[C@H]2C(=O)NC3(CCC3)C(=O)N(C)[C@@H](C3CCCC3)C(=O)N(C)[C@H](C(=O)N(C)CC)CC(=O)N(C)[C@H]3CCCC/C=C/c4ccc(cc4)C[C@@H](C(=O)N(C)CC(=O)N[C@@H](CCc4cc(F)c(C(F)(F)F)c(F)c4)C(=O)N2C1)N1CC/C=C\C[C@@H](C1=O)N(C)C(=O)CN(C)C(=O)[C@H]([C@@H](C)CC)NC3=O [PP1827, (1S,7S,11R,13S,19S,22S,26S,29S,35S,37Z,47E)-19-cyclopentyl-7-[2-[3,5-difluoro-4-(trifluoromethyl)phenyl]ethyl]-11-ethoxy-N-ethyl-N,3,18,21,25,31,34-heptamethyl-29-[(1S)-1-methylpropyl]-2,5,8,14,17,20,24,27,30,33,55-undecaoxo-spiro[3,6,9,15,18,21,25,28,31,34,41-undecazapentacyclo[24.15.11.2^43,46.1^35,41.0^9,13]pentapentaconta-37,43(54),44,46(53),47-pentaene-16,1′-cyclobutane]-22-carboxamide]	A (a compound having 10 or more and less than 20 is denoted as A)	A (a compound having 10 or more and less than 20 is denoted as A)		
0.033	2.3		CCO[C@@H]1C[C@H]2C(=O)NC3(CC(C)(C)C3)C(=O)N(C)[C@@H](C3CCCC3)C(=O)N(C)[C@H](C(=O)N(C)CC)CC(=O)N(C)[C@H]3CCCC/C=C/c4ccc(cc4)C[C@@H](C(=O)N(C)CC(=O)N[C@@H](CCc4cc(F)c(C(F)(F)F)c(F)c4)C(=O)N2C1)N1CC/C=C\C[C@@H](C1=O)N(C)C(=O)CN(C)C(=O)[C@H]([C@@H](C)CC)NC3=O [PP1829]	A (a compound having 10 or more and less than 20 is denoted as A)	B (a compound having 3 or more and less than 10 is denoted as B)		
0.41		16.2	CCCN1C(=O)CN(CC)C(=O)CN(C)C(=O)[C@H]([C@@H](C)CC)NC(=O)[C@H](CC(C)C)N(C)C(=O)C[C@@H](C(=O)N2CCOCC2)N(C)C(=O)[C@H](C2CCCC2)N(C)C(=O)C2(CCC2)NC(=O)[C@@H]2CCCN2C(=O)[C@H](CCc2ccc(C(F)(F)F)c(Cl)c2)NC(=O)CN(C)C(=O)[C@@H]1Cc1ccc(C(F)(F)F)cc1 [PP1948] ([NMeL]I[Sar][NEtG][NPrPhe(4-CF3)][Sar][hPhe(3-Cl-4-CF3)]P[Ac4c][NMeGly(cPent)][NMeD]-Morpholide; lactam N-11)	C (A compound having a KD ratio of 0.1 or more and less than 3 is denoted as C)	C (A compound having a KD ratio of 0.1 or more and less than 3 is denoted as C)		
0.17	10.3		CC[C@H](C)[C@@H]1NC(=O)[C@H](C(C)C)N(C)C(=O)C[C@@H](C(=O)N(C)CC)N(C)C(=O)[C@H](C2CCCC2)N(C)C(=O)C2(CCC2)NC(=O)[C@@H]2C[C@H](C)CN2C(=O)[C@H](CCc2cc(F)c(C(F)(F)F)c(F)c2)NC(=O)CN(C)C(=O)[C@H](Cc2ccc(C(F)(F)F)cc2)N2CC/C=C\C[C@@H](C2=O)N(C)C(=O)CN(C)C1=O [PP2078]			AA (a compound having 20 or more is denoted as AA)	A (a compound having 10 or more and less than 20 is denoted as A)
0.19	1.6		CCC[C@@H]1C[C@H]2C(=O)NC3(CC(C)(C)C3)C(=O)N(C)[C@@H](C3CCCC3)C(=O)N(C)[C@H](C(=O)N(C)C)CC(=O)N(C)[C@@H](C)C(=O)N[C@@H]([C@@H](C)CC)C(=O)N(C)CC(=O)N(C)[C@H]3C/C=C\CCN(C3=O)[C@@H](Cc3ccc(C(F)(F)F)cc3)C(=O)N(C)CC(=O)N[C@@H](CCc3cc(F)c(C(F)(F)F)c(F)c3)C(=O)N2C1 [PP2273]			AA (a compound having 20 or more is denoted as AA)	A (a compound having 10 or more and less than 20 is denoted as A)
3.9	103		CCOC[C@H]1C(=O)N[C@@H]([C@@H](C)CC)C(=O)N2CCC[C@H]2C(=O)N(C)[C@H]2C/C=C\CCN(C2=O)[C@@H](CC2CCC(F)(F)CC2)C(=O)N(C)CC(=O)N[C@@H](CCc2ccc(C(F)(F)F)c(OC)c2)C(=O)N2C[C@H](OCC)C[C@H]2C(=O)N(C)C2(CCC2)C(=O)N(C)[C@@H](C(CC)CC)C(=O)N(C)[C@H](C(=O)N(C)C)CC(=O)N1C [PP2355]			AA (a compound having 20 or more is denoted as AA)	A (a compound having 10 or more and less than 20 is denoted as A)
0.94	14.7		CCC[C@H]1C(=O)N[C@@H]([C@@H](C)CC)C(=O)N2CCC[C@H]2C(=O)N(C)[C@H]2C/C=C\CCN(C2=O)[C@@H](CC2CCC(F)(F)CC2)C(=O)N(C)CC(=O)N[C@@H](CCc2ccc(C(F)(F)F)c(OC)c2)C(=O)N2C[C@H](OCC)C[C@H]2C(=O)N(C)C2(CCC2)C(=O)N(C)[C@@H](C2CCCC2)C(=O)N(C)[C@H](C(=O)N(C)C)CC(=O)N1C [PP2356]			A (a compound having 10 or more and less than 20 is denoted as A)	A (a compound having 10 or more and less than 20 is denoted as A)

Further lines, the compound ahead of its results:

Structure (SMILES)	Kd [1] [nM]	IC50 [4] [nM]	IC50 [4, 5] [nM]	NRAS/KRAS (KD ratio) [2]	HRAS/KRAS (KD ratio) [3]	NRAS/KRAS (ratio of KD value for NRAS to KD value for KRAS) [2]	HRAS/KRAS (ratio of KD value for HRAS to KD value for KRAS) [3]
CCC[C@H]1C(=O)N[C@@H]([C@@H](C)CC)C(=O)N(C)CC(=O)N(CCC)CC(=O)N(CCC)[C@@H](Cc2ccc(C(F)(F)F)cc2)C(=O)N(C)CC(=O)N[C@@H](CCc2ccc(C(F)(F)F)c(Cl)c2)C(=O)N2CCC[C@H]2C(=O)NC2(CCC2)C(=O)N(C)[C@@H](C2CCCC2)C(=O)N(C)[C@H](C(=O)N2CCOCC2)CC(=O)N1C [PP1949] ([NMeNva]I[Sar][NPrGly][NPrPhe(4-CF3)][Sar][hPhe(3-Cl-4-CF3)]P[Ac4c][NMeGly(cPent)][NMeD]-Morpholide; lactam N-11)	0.92		9.3	C (A compound having a KD ratio of 0.1 or more and less than 3 is denoted as C)	C (A compound having a KD ratio of 0.1 or more and less than 3 is denoted as C)		
C#CC[C@H]1C(=O)N[C@@H]([C@@H](C)CC)C(=O)N(C)CC(=O)N(C)[C@H]2C/C=C\CCN(C2=O)[C@@H](Cc2ccc(C(F)(F)F)cc2)C(=O)N(C)CC(=O)N[C@@H](CCc2cc(F)c(C(F)(F)F)c(F)c2)C(=O)N2C[C@@H](C)C[C@H]2C(=O)NC2(CCC2)C(=O)N(C)[C@@H](C2CCCC2)C(=O)N(C)[C@H](C(=O)N(C)CCC)CC(=O)N1C [PP2077]	0.12	10.9				A (a compound having 10 or more and less than 20 is denoted as A)	A (a compound having 10 or more and less than 20 is denoted as A)
C#CCN1CC(=O)N(C)[C@H]2C/C=C\CCN(C2=O)[C@@H](Cc2ccc(C(F)(F)F)cc2)C(=O)N(C)CC(=O)N[C@@H](CCc2ccc(C(F)(F)F)c(OC)c2)C(=O)N2C[C@H](OCC)C[C@H]2C(=O)NC2(CC(C)(C)C2)C(=O)N(C)[C@@H](C2CCCC2)C(=O)N(C)[C@H](C(=O)N(C)C)CC(=O)N(C)[C@@H](CC)C(=O)N[C@@H]([C@@H](C)CC)C1=O [PP2091]	0.18	4.6				A (a compound having 10 or more and less than 20 is denoted as A)	B (a compound having 3 or more and less than 10 is denoted as B)
CCC[C@H]1C(=O)N[C@@H]([C@@H](C)CC)C(=O)N(C2CC2)CC(=O)N(C)[C@H]2C/C=C\CCN(C2=O)[C@@H](CC2CCCCC2)C(=O)N(C)CC(=O)N[C@@H](CCc2ccc(C(F)(F)F)c(OC)c2)C(=O)N2C[C@H](OCC)C[C@H]2C(=O)N(C)C2(CCC2)C(=O)N(C)[C@@H](C(CC)CC)C(=O)N(C)[C@H](C(=O)N(C)C)CC(=O)N1C [PP2337]	3.2	33.9				A (a compound having 10 or more and less than 20 is denoted as A)	A (a compound having 10 or more and less than 20 is denoted as A)
CCCOC[C@H]1C(=O)N[C@@H]([C@@H](C)CC)C(=O)N2CCC[C@H]2C(=O)N(C)[C@H]2C/C=C\CCN(C2=O)[C@@H](CC2CCC(F)(F)CC2)C(=O)N(C)CC(=O)N[C@@H](CCc2ccc(C(F)(F)F)c(OC)c2)C(=O)N2C[C@H](OCC)C[C@H]2C(=O)N(C)C2(CCC2)C(=O)N(C)[C@@H](C2CCCC2)C(=O)N(C)[C@H](C(=O)N(C)C)CC(=O)N1C [PP2357]	1.2	59.7				A (a compound having 10 or more and less than 20 is denoted as A)	B (a compound having 3 or more and less than 10 is denoted as B)
CCC[C@H]1C(=O)N[C@@H]([C@@H](C)CC)C(=O)N(C)CC(=O)N(C)[C@H]2C/C=C\CCN(C2=O)[C@@H](Cc2ccc(C(F)(F)F)cc2)C(=O)N(C)CC(=O)N[C@@H](CCc2ccc(C(F)(F)F)c(OC)c2)C(=O)N2C[C@@H](C)C[C@H]2C(=O)N(C)C2(CCC2)C(=O)N(C)[C@@H](C2CCCC2)C(=O)N(C)[C@H](C(=O)N(C)C)CC(=O)N1C [PP2358]	0.02	2.5				A (a compound having 10 or more and less than 20 is denoted as A)	B (a compound having 3 or more and less than 10 is denoted as B)
